Converted amounts (≈) assume the structure as drawn. Read-outs that look alike come from different tables or passages of the source. Each block holds one compound with its values, some of them ahead of it. Side chains are listed from the residue outwards. Peptide text beside a SMILES is read from it. * marks the point of attachment. Levofloxacinoyl = C[C@H]1COc2c(N3CCN(C)CC3)c(F)cc3c(=O)c(C(=O)*)cn1c23; X1 = C[C@H]1COc2c(F)c(F)cc3c(=O)c(C(=O)*)cn1c23; βAla = NCCC(=O)O
Experiments:
[1] = system: Methicillin-resistant Staphylococcus aureus (MRSA); design: method as in PMID 25157458; conditions: previously reported; cited from earlier work
Source text: The development of a new class of antibiotics to fight bacterial resistance is a time-consuming effort associated with high-cost and commercial risks. Thus, modification, conjugation or combination of existing antibiotics to enhance their efficacy is a suitable strategy. […] Herein, we hypothesized that conjugation or combination of the amphiphilic cyclic peptide [R4W4] with levoflox ... || Antimicrobial peptides (AMPs) are vital parts of the innate immune system, which usually act at the level of the plasma membrane of the bacterial cell. AMPs have a unique mode of action, which is mostly related to their cationic and amphipathic properties, making them capable of interacting with microbial membranes. Accordingly, AMPs have attracted increasing attention as potential candidates against resistant bacteria. […] T ...

Escherichia coli = system: Escherichia coli; design: method as in PMID 25157458; conditions: previously reported; cited from earlier work
[2] = system: Methicillin-Resistant Staphylococcus aureus (Los Angeles County (LAC) clone); assay: microbe, parasite or virus in culture; type: cell-based; conditions: for MIC: Staphylococcus aureus, MRSA, read-out: MIC, Methicillin-Resistant Staphylococcus aureus (MRSA)
Experimental: (§1) The antibacterial activities of synthesized peptides were evaluated against two bacterial strains and compared to a control antibiotic and [R4W4]. Gram-negative bacteria: Klebsiella pneumoniae (Clinical strain (levofloxacin-susceptible)) and the Gram-positive bacteria: Methicillin-Resistant Staphylococcus aureus (Los Angeles County (LAC) clone) were employed for the determination of antimicrobial activities of peptides. MRSA and Klebsiella pneumoniae were inoculated into 5 mL of Mueller Hinton […] (MH) at 37 °C and shaken in an orbital shaker at 175 rpm overnight. The cultured suspension was diluted in 5 mL normal saline until it achieved 0.5 McFarland (1.5 × 10^8 bacterial cell density) turbidity. An amount of 40 μL of the McFarland solution was added to […] of MH media to make 1/150 dilution. Most peptides were dissolved in distilled water (except some of them that were dissolved in 50 mM NH4HCO3 to improve the solubility) to make 256 μg/mL solutions. Minimal inhibitory concentrations (MICs) were determined using the broth microdilution method. Briefly, 200 μL of all tested peptides and controls was added in the first column of the 96-well plate. Then, by adding 100 μL of media to the other wells and performing a 2-fold dilution in each well, serial dilution of the compound was prepared. After a series of 2-fold dilutions, 100 μL of bacterial solution was added to all wells, and then the microliter plates were incubated statically at 37 °C overnight. MICs were determined as the minimal concentration at which no visible bacterial growth was present. All experiments were conducted in triplicate.

[3] = system: Klebsiella pneumoniae (Clinical strain (levofloxacin-susceptible)); assay: microbe, parasite or virus in culture; type: cell-based; conditions: for MIC: Klebsiella pneumoniae
Experimental: as §1

[4] = broth microdilution, Mueller Hinton media, 2-fold dilutions, 37 °C overnight, no visible growth, triplicate, N/A = not active
[5] = Clinical strain (levofloxacin-susceptible)
[6] = broth microdilution, Mueller Hinton media, 2-fold dilutions, 37 °C overnight, no visible growth, triplicate, N/A = not active, listed as levofloxacin-Q

SMILES: CN(C)[C@@H]1C(O)=C(C(N)=O)C(=O)[C@@]2(O)C(O)=C3C(=O)c4c(O)cccc4[C@@](C)(O)[C@H]3C[C@@H]12 [tetracycline]
MIC against MRSA [1]: 0.5 µg/mL
MIC against Escherichia coli (Escherichia coli): 2 µg/mL (≈ 4.5 µM)

MIC, Methicillin-Resistant Staphylococcus aureus (MRSA) [2, 4]: 32 µg/mL (≈ 16.7 µM)
SMILES: C[C@H]1COc2c(N3CCN(C)CC3)c(F)cc3c(=O)c(C(=O)NCCC(=O)NCCCC[C@@H]4NC(=O)[C@H](Cc5c[nH]c6ccccc56)NC(=O)[C@H](Cc5c[nH]c6ccccc56)NC(=O)[C@H](Cc5c[nH]c6ccccc56)NC(=O)[C@H](Cc5c[nH]c6ccccc56)NC(=O)[C@H](CCCNC(=N)N)NC(=O)[C@H](CCCNC(=N)N)NC(=O)[C@H](CCCNC(=N)N)NC(=O)[C@H](CCCNC(=N)N)NC4=O)cn1c23 [Conjugate cyclic [R4W4]-levofloxacin (8)] (cyclo(K([βAla-Levofloxacinoyl])RRRRWWWW))

MIC, Klebsiella pneumoniae [3, 4]: 32 µg/mL (≈ 17.5 µM)
MIC, Methicillin-Resistant Staphylococcus aureus (MRSA) [2, 4]: 8 µg/mL (≈ 4.37 µM)
SMILES: C[C@H]1COc2c(F)c(F)cc3c(=O)c(C(=O)NCCC(=O)NCCCC[C@@H]4NC(=O)[C@H](Cc5c[nH]c6ccccc56)NC(=O)[C@H](Cc5c[nH]c6ccccc56)NC(=O)[C@H](Cc5c[nH]c6ccccc56)NC(=O)[C@H](Cc5c[nH]c6ccccc56)NC(=O)[C@H](CCCNC(=N)N)NC(=O)[C@H](CCCNC(=N)N)NC(=O)[C@H](CCCNC(=N)N)NC(=O)[C@H](CCCNC(=N)N)NC4=O)cn1c23 (cyclo(K([βAla-X1])RRRRWWWW))

MIC [3, 4]: 4 µg/mL (≈ 11.1 µM)
MIC, Klebsiella pneumoniae [3, 4]: 4 µg/mL (≈ 11.1 µM)
MIC [2, 4]: 2 µg/mL (≈ 5.53 µM)
MIC, Methicillin-Resistant Staphylococcus aureus (MRSA) [2, 4]: 2 µg/mL (≈ 5.53 µM)
SMILES: C[C@H]1COc2c(N3CCN(C)CC3)c(F)cc3c(=O)c(C(=O)O)cn1c23 [Levofloxacin (1), Levofloxacin]

MIC, Klebsiella pneumoniae [3, 5]: 16 µg/mL (≈ 11.7 µM)
MIC, Methicillin-Resistant Staphylococcus aureus (MRSA) ([2]; Methicillin-Resistant (Los Angeles County (LAC) clone)): 4 µg/mL (≈ 2.92 µM)
SMILES: N=C(N)NCCC[C@@H]1NC(=O)[C@H](CCCNC(=N)N)NC(=O)[C@H](CCCNC(=N)N)NC(=O)[C@H](Cc2c[nH]c3ccccc23)NC(=O)[C@H](Cc2c[nH]c3ccccc23)NC(=O)[C@H](Cc2c[nH]c3ccccc23)NC(=O)[C@H](Cc2c[nH]c3ccccc23)NC(=O)[C@H](CCCNC(=N)N)NC1=O [[R4W4] (3)] (cyclo(RRRRWWWW))
MIC against MRSA [1]: 2.97 µg/mL

MIC, Klebsiella pneumoniae [3, 4]: >128 µg/mL
MIC, Klebsiella pneumoniae [3, 6]: > 128 µg/mL
MIC, Methicillin-Resistant Staphylococcus aureus (MRSA) [2, 4]: >128 µg/mL
MIC, Methicillin-Resistant Staphylococcus aureus (MRSA) [2, 6]: > 128 µg/mL
SMILES: C[C@H]1COc2c(F)c(F)cc3c(=O)c(C(=O)O)cn1c23 [Levofloxacin-Q (2), Levofloxacin-Q acid]

MIC [3, 4]: 1 µg/mL (≈ 2.61 µM)
SMILES: C[C@@H](O)[C@H]1C(=O)N2C(C(=O)O)=C(S[C@@H]3CN[C@H](C(=O)N(C)C)C3)[C@H](C)[C@H]12 [Meropenem]

SMILES: CN[C@H](CC(C)C)C(=O)N[C@H]1C(=O)N[C@@H](CC(N)=O)C(=O)N[C@H]2C(=O)N[C@H]3C(=O)N[C@H](C(=O)N[C@H](C(=O)O)c4cc(O)cc(O)c4-c4cc3ccc4O)[C@H](O)c3ccc(c(Cl)c3)Oc3cc2cc(c3O[C@@H]2O[C@H](CO)[C@@H](O)[C@H](O)[C@H]2O[C@H]2C[C@](C)(N)[C@H](O)[C@H](C)O2)Oc2ccc(cc2Cl)[C@H]1O [Vancomycin]
MIC [2]: 1 µg/mL (≈ 0.69 µM)

MIC, Klebsiella pneumoniae [3, 5]: >128 µg/mL
MIC, Methicillin-Resistant Staphylococcus aureus (MRSA) [2, 4]: 64 µg/mL (≈ 33.2 µM)
SMILES: C[C@H]1COc2c(N3CCN(C)CC3)c(F)cc3c(=O)c(C(=O)NCCC(=O)NCCCC[C@H](N)C(=O)N[C@@H](CCCNC(=N)N)C(=O)N[C@@H](CCCNC(=N)N)C(=O)N[C@@H](CCCNC(=N)N)C(=O)N[C@@H](CCCNC(=N)N)C(=O)N[C@@H](Cc4c[nH]c5ccccc45)C(=O)N[C@@H](Cc4c[nH]c5ccccc45)C(=O)N[C@@H](Cc4c[nH]c5ccccc45)C(=O)N[C@@H](Cc4c[nH]c5ccccc45)C(=O)O)cn1c23 [Conjugate linear (R4W4)-levofloxacin (6)] (H-K([βAla-Levofloxacinoyl])RRRRWWWW-OH)
